According to US20250276964A1 (Novartis AG, priority 2021, published 2025):

Biological target: T1, WIZ (Homo sapiens, UniProt O95785+Q96SW2)
T1 construct: expressed in transfected cells
Assay: Quantification of WIZ protein levels in HiBit tag fusion protein assay (WIZ HiBit assay in 293T cells)
Type: cell-based
Settings: for Dmax at 25 µM / remaining activity at 25 µM: HEK-293T; for Dmax at 25 µM / % degradation of WIZ (100-Amax): 100 minus Amax at 25 uM; for Dmax at 25 µM: read-out: % degradation of WIZ (100-Amax); for remaining activity at 25 µM / WIZ Amax: DMSO-normalized, curve-fitted percentage of WIZ-HiBit remaining at 25 uM; for remaining activity at 25 µM: read-out: WIZ Amax; for DC50: WIZ HiBit assay in 293T cells, 10-point, 5-fold dilution, highest concentration 25 μM, about 18 hours, read-out: WIZ AC50
Protocol: The HiBit system from Promega was used to develop high-throughput and quantitative assays to measure changes in WIZ protein levels in response to compounds. The HiBit tag was derived from a split Nanoluciferase and has the following protein sequence: […] (SEQ ID NO: 1). The complementary fragment of Nanoluciferase (known as LgBit, from Promega), was added to the HiBit tag to form an active Nanoluciferase enzyme whose activity can be precisely measured. In this way, the levels of a fusion protein with the HiBit tag can be quantified in cell lysates.
Lentiviral vectors, based on the Invitrogen™ pLenti6.2/V5 DEST backbone were constructed that places the HiBit tag upstream of WIZ and expressed the fusion protein from an HSVTK promotor.
To ensure moderate and consistent expression of the HiBit-WIZ fusion protein across all cells in the population, stable cell lines were constructed from cells harboring a single copy of the construct. Lentivirus packaged with the constructs were made using the ViraPower™kit from Invitrogen™. 293T cells from ATCC (Catalog number: CRL-3216), were infected with the virus at low multiplicity of infection and selected by 5 μg/mL blasticidin in culture media for 2 weeks.
The levels of HiBit-WIZ tagged fusion proteins in compound-treated cell lines were measured as follows:
On day 1, cells were diluted to 1.0×10^6 cells/ml in normal growth medium. 20 μL of cell suspension were plated in each well of a solid white 384-well plate. Plates were incubated overnight in a 37° C. and 5% CO2 humidified tissue culture incubator.
On day 2, serial dilutions of compounds were made in 384-well plates. Compound plates were set up with DMSO in columns 1, 2, 23, 24, and 10-point compound dilution series in column 3-12 and column 13-22. 10 mM stock solution of compound were placed into column 3 or 13 and a 1:5 serial dilution was carried out until there was a 10-point dilution series per compound. 50 nL of diluted compounds were transferred into the plated cells by Echo® (Labcyte) acoustic transfer. The highest concentration of compound was 25 μM. Plates were incubated overnight (about 18 hours) in a 37° C. and 5% CO2 humidified tissue culture incubator.
On day 3, plates were removed from the incubator and allowed to equilibrate at room temperature for 60 minutes. HiBit substrate (Nano-Glo® HiBit Lytic Detection System, Promega Catalogue number: N3050) was added as described by the manufacturers protocols. Plates were incubated at room temperature for 30 minutes and luminescence was read using an EnVision® reader (PerkinElmer®). Data was analyzed and visualized using the Spotfire® software package.
WIZ Amax reflects the DMSO-normalized, curve-fitted percentage of WIZ-HiBit remaining at 25 uM. It was calculated by normalizing DMSO controls to 100%, parametric curve fitting of the dose response data (10-point, 5-fold), followed by calculation of response at 25 uM using the fitted equation (nd=not determined).

T1 sequence (O95785 whole entry): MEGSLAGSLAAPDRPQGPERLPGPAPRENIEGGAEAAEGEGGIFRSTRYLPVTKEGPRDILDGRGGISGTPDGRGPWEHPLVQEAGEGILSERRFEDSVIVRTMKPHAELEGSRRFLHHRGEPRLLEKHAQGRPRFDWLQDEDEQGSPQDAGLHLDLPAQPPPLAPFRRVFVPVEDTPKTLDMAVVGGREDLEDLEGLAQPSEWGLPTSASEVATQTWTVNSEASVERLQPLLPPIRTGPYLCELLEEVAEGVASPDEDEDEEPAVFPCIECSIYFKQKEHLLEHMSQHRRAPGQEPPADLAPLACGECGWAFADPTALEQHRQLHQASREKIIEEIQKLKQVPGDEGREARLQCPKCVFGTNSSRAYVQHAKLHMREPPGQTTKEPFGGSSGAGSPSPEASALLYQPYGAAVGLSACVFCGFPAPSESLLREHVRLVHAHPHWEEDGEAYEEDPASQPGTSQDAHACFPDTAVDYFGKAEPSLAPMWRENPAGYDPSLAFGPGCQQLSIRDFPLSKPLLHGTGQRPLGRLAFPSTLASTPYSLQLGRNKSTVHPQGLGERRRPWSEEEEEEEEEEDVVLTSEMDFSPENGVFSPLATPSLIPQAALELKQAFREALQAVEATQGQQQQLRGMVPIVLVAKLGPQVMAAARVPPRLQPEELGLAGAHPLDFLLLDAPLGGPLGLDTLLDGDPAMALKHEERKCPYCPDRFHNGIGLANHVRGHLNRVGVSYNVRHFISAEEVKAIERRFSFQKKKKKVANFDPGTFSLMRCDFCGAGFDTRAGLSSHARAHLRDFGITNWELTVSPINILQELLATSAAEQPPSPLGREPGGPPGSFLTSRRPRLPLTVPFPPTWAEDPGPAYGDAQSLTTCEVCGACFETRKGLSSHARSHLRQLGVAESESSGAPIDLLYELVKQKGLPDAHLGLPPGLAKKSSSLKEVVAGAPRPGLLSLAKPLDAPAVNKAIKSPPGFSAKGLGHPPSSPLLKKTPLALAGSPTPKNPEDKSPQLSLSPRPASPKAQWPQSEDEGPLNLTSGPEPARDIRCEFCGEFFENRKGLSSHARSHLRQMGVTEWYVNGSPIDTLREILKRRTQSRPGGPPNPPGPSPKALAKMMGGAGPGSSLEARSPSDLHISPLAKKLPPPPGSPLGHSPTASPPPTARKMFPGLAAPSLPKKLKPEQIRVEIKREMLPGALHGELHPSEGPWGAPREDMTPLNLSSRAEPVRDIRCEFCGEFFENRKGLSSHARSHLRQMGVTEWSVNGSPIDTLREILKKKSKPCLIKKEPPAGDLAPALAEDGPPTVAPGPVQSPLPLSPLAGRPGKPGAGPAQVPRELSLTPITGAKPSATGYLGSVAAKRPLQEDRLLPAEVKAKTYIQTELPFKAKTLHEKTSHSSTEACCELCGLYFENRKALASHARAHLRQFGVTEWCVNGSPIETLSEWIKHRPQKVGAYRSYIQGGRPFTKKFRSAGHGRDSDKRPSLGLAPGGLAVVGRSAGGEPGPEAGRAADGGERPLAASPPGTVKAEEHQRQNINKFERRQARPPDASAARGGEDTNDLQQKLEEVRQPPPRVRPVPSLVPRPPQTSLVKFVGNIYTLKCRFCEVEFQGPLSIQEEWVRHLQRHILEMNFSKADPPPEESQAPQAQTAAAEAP
T1 sequence (Q96SW2 whole entry): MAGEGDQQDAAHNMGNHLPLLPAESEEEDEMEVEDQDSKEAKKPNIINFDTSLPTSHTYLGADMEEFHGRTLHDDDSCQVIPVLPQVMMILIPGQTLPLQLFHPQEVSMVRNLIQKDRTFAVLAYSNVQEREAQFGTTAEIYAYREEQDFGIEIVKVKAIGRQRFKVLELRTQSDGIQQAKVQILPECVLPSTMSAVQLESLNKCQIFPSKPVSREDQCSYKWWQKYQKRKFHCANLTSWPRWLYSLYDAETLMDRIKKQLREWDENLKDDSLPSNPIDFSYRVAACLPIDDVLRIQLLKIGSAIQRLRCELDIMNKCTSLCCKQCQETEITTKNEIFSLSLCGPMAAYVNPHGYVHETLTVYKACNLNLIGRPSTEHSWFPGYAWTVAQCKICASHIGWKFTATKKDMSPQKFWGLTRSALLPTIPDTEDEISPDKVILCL
T1 sequence (Q16531 whole entry partner): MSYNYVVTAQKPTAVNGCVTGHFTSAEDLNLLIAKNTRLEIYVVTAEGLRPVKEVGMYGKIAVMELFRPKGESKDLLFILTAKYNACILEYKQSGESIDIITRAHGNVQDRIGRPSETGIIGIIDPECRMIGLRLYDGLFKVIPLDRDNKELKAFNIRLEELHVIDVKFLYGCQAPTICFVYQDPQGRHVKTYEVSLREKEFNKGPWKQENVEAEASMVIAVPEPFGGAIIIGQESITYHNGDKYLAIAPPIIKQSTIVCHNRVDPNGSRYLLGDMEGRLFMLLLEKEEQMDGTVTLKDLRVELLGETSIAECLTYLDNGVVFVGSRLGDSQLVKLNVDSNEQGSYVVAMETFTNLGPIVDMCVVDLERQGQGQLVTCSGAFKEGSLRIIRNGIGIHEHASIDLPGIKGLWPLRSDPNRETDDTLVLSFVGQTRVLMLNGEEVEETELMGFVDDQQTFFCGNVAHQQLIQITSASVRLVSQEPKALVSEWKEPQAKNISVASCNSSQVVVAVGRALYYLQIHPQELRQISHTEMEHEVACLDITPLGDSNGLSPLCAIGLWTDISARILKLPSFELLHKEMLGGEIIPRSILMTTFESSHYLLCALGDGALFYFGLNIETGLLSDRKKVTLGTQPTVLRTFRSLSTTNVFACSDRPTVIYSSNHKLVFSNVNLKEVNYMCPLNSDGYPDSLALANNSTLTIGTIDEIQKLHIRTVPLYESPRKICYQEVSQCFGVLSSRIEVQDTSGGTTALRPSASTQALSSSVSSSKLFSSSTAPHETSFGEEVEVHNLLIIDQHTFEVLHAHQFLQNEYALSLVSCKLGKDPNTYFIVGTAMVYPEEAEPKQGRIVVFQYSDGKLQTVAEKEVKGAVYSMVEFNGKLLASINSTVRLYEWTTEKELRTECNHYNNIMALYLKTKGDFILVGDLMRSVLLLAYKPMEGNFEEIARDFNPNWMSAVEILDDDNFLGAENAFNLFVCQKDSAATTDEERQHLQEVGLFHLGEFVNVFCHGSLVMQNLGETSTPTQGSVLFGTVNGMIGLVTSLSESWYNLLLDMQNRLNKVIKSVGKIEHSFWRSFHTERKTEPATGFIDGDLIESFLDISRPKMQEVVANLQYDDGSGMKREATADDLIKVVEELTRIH

Row | Structure (SMILES) | Dmax at 25 µM | remaining activity at 25 µM | DC50 | % degradation of WIZ (100-Amax) | WIZ Amax
1 | O=C1CCN(c2noc3ccc(CC4C[C@H]5CC[C@@H](C4)N5)cc23)C(=O)N1 (stereo partly drawn) [Example 56, 1-(5-(((1R,5S)-8-azabicyclo[3.2.1]octan-3-yl)methyl)benzo[d]isoxazol-3-yl)dihydropyrimidine-2,4(1H,3H)-dione] |  |  | 251 nM | 45% | 55%
2 | O=C1CCN(c2noc3ccc(CC4C[C@H]5CC[C@@H](C4)N5)cc23)C(=O)N1 (stereo partly drawn) [Example 57, 1-(5-(((1R,5S)-8-azabicyclo[3.2.1]octan-3-yl)methyl)benzo[d]isoxazol-3-yl)dihydropyrimidine-2,4(1H,3H)-dione] |  |  | 649 nM | 80% | 20%
3 | CN1[C@@H]2CC[C@H]1CC(Cc1ccc3onc(N4CCC(=O)NC4=O)c3c1)C2 (stereo partly drawn) [Example 58, 1-(5-(((1R,5S)-8-methyl-8-azabicyclo[3.2.1]octan-3-yl)methyl)benzo[d]isoxazol-3-yl)dihydropyrimidine-2,4(1H,3H)-dione] | 89% | 11% | 20 nM |  | 
4 | CN1[C@@H]2CC[C@H]1CC(Cc1ccc3onc(N4CCC(=O)NC4=O)c3c1)C2 (stereo partly drawn) [Example 59, 1-(5-(((1R,5S)-8-methyl-8-azabicyclo[3.2.1]octan-3-yl)methyl)benzo[d]isoxazol-3-yl)dihydropyrimidine-2,4(1H,3H)-dione] |  |  | 25 nM | 84% | 16%
5 | CS(=O)(=O)N1[C@@H]2CC[C@H]1CC(Cc1ccc3onc(N4CCC(=O)NC4=O)c3c1)C2 (stereo partly drawn) [Example 60, 1-(5-(((1R,5S)-8-(methylsulfonyl)-8-azabicyclo[3.2.1]octan-3-yl)methyl)benzo[d]isoxazol-3-yl)dihydropyrimidine-2,4(1H,3H)-dione] | 90% | 10% | 9 nM |  | 
6 | CS(=O)(=O)N1[C@@H]2CC[C@H]1CC(Cc1ccc3onc(N4CCC(=O)NC4=O)c3c1)C2 (stereo partly drawn) [Example 61, 1-(5-(((1R,5S)-8-(methylsulfonyl)-8-azabicyclo[3.2.1]octan-3-yl)methyl)benzo[d]isoxazol-3-yl)dihydropyrimidine-2,4(1H,3H)-dione] |  |  | 26 nM | 85% | 15%
7 | CCN1CCN(Cc2ccc3onc(N4CCC(=O)NC4=O)c3c2)[C@H](C)C1 [Example 66, (R)-1-(5-((4-ethyl-2-methylpiperazin-1-yl)methyl)benzo[d]isoxazol-3-yl)dihydropyrimidine-2,4(1H,3H)-dione] | 86% | 14% | 45 nM |  | 
8 | C[C@@H]1CN(CC2CCOCC2)CCN1Cc1ccc2onc(N3CCC(=O)NC3=O)c2c1 [Example 67, (R)-1-(5-((2-methyl-4-((tetrahydro-2H-pyran-4-yl)methyl)piperazin-1-yl)methyl)benzo[d]isoxazol-3-yl)dihydropyrimidine-2,4(1H,3H)-dione] | 89% | 11% | 9 nM |  | 
9 | C[C@@H]1CN(CC2COC2)CCN1Cc1ccc2onc(N3CCC(=O)NC3=O)c2c1 [Example 68, (R)-1-(5-((2-methyl-4-(oxetan-3-ylmethyl)piperazin-1-yl)methyl)benzo[d]isoxazol-3-yl)dihydropyrimidine-2,4(1H,3H)-dione] | 83% | 17% | 40 nM |  | 
10 | CC(C)N1CCN(Cc2ccc3onc(N4CCC(=O)NC4=O)c3c2)[C@H](C)C1 [Example 69, (R)-1-(5-((4-isopropyl-2-methylpiperazin-1-yl)methyl)benzo[d]isoxazol-3-yl)dihydropyrimidine-2,4(1H,3H)-dione] | 83% | 17% | 45 nM |  | 
11 | C[C@@H]1CN(CC(=O)N2CCCCC2)CCN1Cc1ccc2onc(N3CCC(=O)NC3=O)c2c1 [Example 70, (R)-1-(5-((2-methyl-4-(2-oxo-2-(piperidin-1-yl)ethyl)piperazin-1-yl)methyl)benzo[d]isoxazol-3-yl)dihydropyrimidine-2,4(1H,3H)-dione] | 78% | 22% | 300 nM |  | 

The next lines start with results.

Row | Dmax at 25 µM | remaining activity at 25 µM | DC50 | Structure (SMILES) | % degradation of WIZ (100-Amax) | WIZ Amax
12 | 77% | 23% | 240 nM | CN1CCCC(Cc2ccc3onc(N4CCC(=O)NC4=O)c3c2)C1 (stereo not drawn) [Example 45, 1-(5-((1-methylpiperidin-3-yl)methyl)benzo[d]isoxazol-3-yl)dihydropyrimidine-2,4(1H,3H)-dione] |  | 
13 | 77% | 23% | 197 nM | CC(C)CN1CCCC(Cc2ccc3onc(N4CCC(=O)NC4=O)c3c2)C1 (stereo not drawn) [Example 46, 1-(5-((1-isobutylpiperidin-3-yl)methyl)benzo[d]isoxazol-3-yl)dihydropyrimidine-2,4(1H,3H)-dione] |  | 
14 | 85% | 15% | 397 nM | CC(C)(C)OC(=O)N1CCC(Cc2ccc3onc(N4CCC(=O)NC4=O)c3c2)C1 (stereo not drawn) [Example 47, tert-butyl 3-((3-(2,4-dioxotetrahydropyrimidin-1 (2H)-yl)benzo[d]isoxazol-5-yl)methyl)pyrrolidine-1-carboxylate] |  | 
15 | 77% | 23% | 1160 nM | O=C1CCN(c2noc3ccc(CC4CCNC4)cc23)C(=O)N1 (stereo not drawn) [Example 48, 1-(5-(pyrrolidin-3-ylmethyl)benzo[d]isoxazol-3-yl)dihydropyrimidine-2,4(1H,3H)-dione] |  | 
16 | 87% | 13% | 279 nM | O=C1CCN(c2noc3ccc(CC4CCN(CC5CCCCC5)C4)cc23)C(=O)N1 (stereo not drawn) [Example 49, 1-(5-((1-(cyclohexylmethyl)pyrrolidin-3-yl)methyl)benzo[d]isoxazol-3-yl)dihydropyrimidine-2,4(1H,3H)-dione] |  | 
17 | 78% | 22% | 448 nM | CN1CCC(Cc2ccc3onc(N4CCC(=O)NC4=O)c3c2)C1 (stereo not drawn) [Example 50, 1-(5-((1-methylpyrrolidin-3-yl)methyl)benzo[d]isoxazol-3-yl)dihydropyrimidine-2,4(1H,3H)-dione] |  | 
18 | 87% | 13% | 392 nM | CC(C)(C)OC(=O)N1CCCC(Cc2ccc3onc(N4CCC(=O)NC4=O)c3c2)CC1 (stereo not drawn) [Example 51, tert-butyl 4-((3-(2,4-dioxotetrahydropyrimidin-1 (2H)-yl)benzo[d]isoxazol-5-yl)methyl)azepane-1-carboxylate] |  | 
19 | 86% | 14% | 57 nM | O=C1CCN(c2noc3ccc(CC4CCCNCC4)cc23)C(=O)N1 (stereo not drawn) [Example 52, 1-(5-(azepan-4-ylmethyl)benzo[d]isoxazol-3-yl)dihydropyrimidine-2,4(1H,3H)-dione] |  | 
20 | 87% | 13% | 4 nM | CN1CCCC(Cc2ccc3onc(N4CCC(=O)NC4=O)c3c2)CC1 (stereo not drawn) [Example 53, 1-(5-((1-methylazepan-4-yl)methyl)benzo[d]isoxazol-3-yl)dihydropyrimidine-2,4(1H,3H)-dione] |  | 
21 | 89% | 11% | 24 nM | CCN1CCN(Cc2ccc3onc(N4CCC(=O)NC4=O)c3c2)CC1 [Example 62, 1-(5-((4-ethylpiperazin-1-yl)methyl)benzo[d]isoxazol-3-yl)dihydropyrimidine-2,4(1H,3H)-dione] |  | 
22 | 84% | 16% | 28 nM | CN1CCCN(Cc2ccc3onc(N4CCC(=O)NC4=O)c3c2)CC1 [Example 63, 1-(5-((4-methyl-1,4-diazepan-1-yl)methyl)benzo[d]isoxazol-3-yl)dihydropyrimidine-2,4(1H,3H)-dione] |  | 
23 | 75% | 25% | 229 nM | CC(=O)N1CCN(Cc2ccc3onc(N4CCC(=O)NC4=O)c3c2)[C@H](C)C1 [Example 64, (R)-1-(5-((4-acetyl-2-methylpiperazin-1-yl)methyl)benzo[d]isoxazol-3-yl)dihydropyrimidine-2,4(1H,3H)-dione] |  | 
